Tested on: colonic viscerosensitivity and spasticity induced by colonoscopy
Test: Video-endoscopic colonoscopy after oral pre-treatment, individual case studies
Assay type: in vivo, human
Text: The patient had received a complete colonoscopy three years before in a hospital based gastro-intestinal unit, and this experience left them very anxious concerning the need for a repeat examination. The occurrence of pain during the procedure as well as the discomfort lasting few hours following the colonoscopic examination, despite parenteral sedation/analgesia, was still vivid in their memories. They wanted to negotiate an alternate diagnostic procedure such as a air-contrast barium enema. […] They were instructed to completed this pharmacological preparation by taking two Fleet® Phospho-soda 45 ml vials with five or six glasses of liquid one in the evening before the examination, and one in the morning two hours before the examination to clean and prepare “clean-rep” the colon. They presented alone to the endoscopy clinic and they were appropriately positioned on their left side on the examination table, and the video-endoscopic colonoscopy was initiated by the endoscopist. The colonoscopy was easily completed to the caecum in 14 minutes. […] The whole colonic examination including the accurate examination of the colon upon retraction of the instrument lasted a total of 25 minutes and was negative for mucosal lesions and for endoluminal polypoid formations. The patient then dressed up and walked to the endoscopist's office to receive the good results of the examination. They were asked several questions on their experience of the new pharmacological preparation as compared to their previous hospital-based unit experience with parenteral sedation/analgesia. […] The endoscopist and the assistant nurse were very satisfied with the ease and shortness of the completed procedure.
As part of a complete investigation, a colonoscopy was planned. They were prescribed Trimebutine maleate 200 mg tablets to be taken orally three times a day for three days before the scheduled examination. They were instructed to complete the pharmacological preparation by taking two Fleet® Phospho-soda 45 ml vials with five or six glasses of liquid, one in the evening before the examination, and one in the morning two hours before the examination to clean and prepare “clean-prep” the colon. They presented to the endoscopy unit with doubts that they could sustain the planned examination without any other drug preparation, having seen in their career many patients having barely tolerated this procedure of full colonoscopy, even after having received before the examination meperidine and midazolam intravenously. They also remembered the “stress experienced by the endoscopist and the assistant nurse working at completing the examination rapidly and successfully reaching the caecum in these patients”. Nonetheless, they consented at trying to receive the examination without further pharmacological preparation, with the promise by the physician that the procedure would be interrupted at their request in the case that they could not tolerate the pain or discomfort. After appropriately positioning the patient on their left side, the instrument was delicately introduced in their rectum, and the progression of the instrument gently initiated. They asked to have their head elevated with a pillow so they could see the video monitor and watch the video-endoscopic recording of their examination. […] The physician and the nurse were surprised by the fact that such a patient presenting a clinical irritable bowel syndrome could experience so little discomfort during the examination since these patients characteristically are chronically suffering from a very low threshold of viscerosentivity with solid or gaseous distension of the colon. After the procedure, they commented that they would accept to repeat the examination any time, and would not hesitate to recommend this pharmacological preparation to patients needing complete colonoscopy, and would be ready to reassure them that there were no more reasons to fear to receive such examination.

[1] = Example 1, patient, 200 mg tablets orally three times a day for three days before examination
[2] = Example 2, patient with clinical irritable bowel syndrome, 200 mg tablets orally three times a day for three days

Trimebutine maleate
recovery after the procedure (Example 1, patient): capable to drive home by themself without any assistance or recovery time
colonic spastic contractions during colonoscopy [1]: No colonic spastic contractions occurred
duration of whole colonic examination including retraction of the instrument [1]: 25 min
pain or discomfort generated by air-distension of the colon [1]: did not generate pain or discomfort
time in which colonoscopy was completed to the caecum (Example 1, patient, 200 mg tablets orally three times a day for three days before examination, no sedation): 14 min
patient-reported pain and discomfort during the procedure (Example 1, patient, questioned after the examination): did not experience any pain and very mild discomfort
discomfort experienced by the patient during the examination [2]: only mild but perfectly tolerable discomfort
progression of the instrument in the patient [2]: easy, painless
spastic contractions during colonoscopy [2]: No spastic contractions delayed the progression of the instrument
time in which the caecum was reached (Example 2, patient with clinical irritable bowel syndrome, 200 mg tablets orally three times a day for three days before examination, no sedation): 12 min

From patent US7932286B2, “Method for treating colonic viscerosensitivity and spasticity” (priority 2007, dated 2011)
